According to US20240315993A1, “ANTIPARASITIC COMPOUNDS” (Intervet Inc., priority 2021, published 2024):

How the values were obtained:
[1] = tested on: Lepeophtheirus salmonis; assay: Salmon - in vivo efficacy against sea lice using gavage administration; conditions: 5 mg/kg once by gavage; for prophylactic efficacy at re-infestation on Day 17 (% reduction vs control) / therapeutic efficacy against juvenile sea lice (% reduction vs control): counted around day 28; for therapeutic efficacy against juvenile sea lice (% reduction vs control): day -3 infestation; for therapeutic efficacy against (pre-)adult sea lice (% reduction vs control): day -28 infestation, counted day 7
Method: Salmon (Salmo solar) were treated once orally by gavage at a dose of 5 mg/kg bodyweight per fish (Day 0). As formulation DMSO 5%/fish oil 95% was used. Salmon of the negative control group received only the excipients of the formulation.
The fish were infested with Lepeophtheirus salmonis copepodids twice before treatment (i.e., around day −28 and day −3) and once after treatment (i.e., day 17).
Around day 28 (end of animal phase), fish were euthanized, and lice on each fish were classified ((pre-)adult or juvenile stage) and counted. […] Efficacy is expressed as a % reduction of sea lice in treated groups versus a control group, using the Abbott's formula.

[2] = tested on: Beet Armyworm (Spodoptera exigua); conditions: 128-well diet tray, average of eight wells, cited from earlier work; for Test A: Bioassay on BAW, percent mortality rating: Beet Armyworm second instar larvae, 50 μg/cm^2, five to seven days; for Test A: percent mortality of Beet Armyworm (BAW) larvae, rating: 50 μg/cm^2 on artificial diet, second instar larvae, 5-7 days
[3] = tested on: Cabbage Looper (Trichoplusia ni); conditions: 128-well diet tray, average of eight wells, cited from earlier work; for Test B: Bioassay on CL, percent mortality rating: Cabbage Looper second instar larvae, 50 μg/cm^2, five to seven days; for Test B: percent mortality of Cabbage Looper (CL) larvae, rating: 50 μg/cm^2 on artificial diet, second instar larvae, 5-7 days
[4] = tested on: Yellow Fever Mosquito (Aedes aegypti); conditions: 96-well plate, cited from earlier work; for Test C: Bioassay on Yellow Fever Mosquito, mortality rating: Aedes aegypti larvae about 1 day old, scored after 3 days; for Test C: mortality of Yellow Fever Mosquito larvae, rating: about 1 day-old larvae, graded after 3 days at room temperature

Row | SMILES | Test A: Bioassay on BAW, percent mortality rating [2] | Test B: Bioassay on CL, percent mortality rating [3] | Test C: Bioassay on Yellow Fever Mosquito, mortality rating [4] | further results
1 | O=C(Nc1ncc(F)cc1F)c1cc(NC(=O)C2C(c3cc(Cl)cc(Cl)c3)C2(Cl)Cl)cc(F)c1Cl (centres unmarked) [Compound 464] | – | – | – | prophylactic efficacy at re-infestation on Day 17 (% reduction vs control) [1]: 100%; therapeutic efficacy against juvenile sea lice (% reduction vs control) [1]: 100%; therapeutic efficacy against (pre-)adult sea lice (% reduction vs control) [1]: 100%
2 | O=C(Nc1c(F)cccc1F)c1cc(NC(=O)C2C(c3cc(Cl)cc(Cl)c3)C2(Cl)Cl)ccc1Cl (centres unmarked) [Compound 458] | – | – | – | prophylactic efficacy at re-infestation on Day 17 (% reduction vs control) [1]: 80%; therapeutic efficacy against juvenile sea lice (% reduction vs control) [1]: 100%; therapeutic efficacy against (pre-)adult sea lice (% reduction vs control) [1]: 100%
3 | Cc1c(F)cc(NC(=O)C2C(c3cc(Cl)cc(Cl)c3)C2(Cl)Cl)cc1C(=O)Nc1ncc(F)cc1F (centres unmarked) [Compound 457] | – | – | – | therapeutic efficacy against juvenile sea lice (% reduction vs control) [1]: 100%; therapeutic efficacy against (pre-)adult sea lice (% reduction vs control) [1]: 80%
4 | CC(C)(C)c1cc2cc(NC(=O)c3cc(NC(=O)C4C(c5cc(Cl)cc(Cl)c5)C4(Cl)Cl)ccc3Cl)ccc2[nH]1 (centres unmarked) [c70] | A (50-100) | A (50-100) | A (80-100) | –
5 | O=C(Nc1ccc(NC(=O)C2CC2)cc1)c1cc(NC(=O)[C@H]2[C@H](c3cc(Cl)cc(Cl)c3)C2(Cl)Cl)ccc1Cl [c4] | A (50-100) | A (50-100) | A (80-100) | –
6 | O=C(Nc1ncc(F)cc1F)c1c(F)ccc(NC(=O)C2C(c3cc(Cl)cc(Cl)c3)C2(Cl)Cl)c1F (centres unmarked) [Compound 480] | – | – | – | therapeutic efficacy against juvenile sea lice (% reduction vs control) [1]: 100%; therapeutic efficacy against (pre-)adult sea lice (% reduction vs control) [1]: 100%
7 | CN1C(=O)Cc2cc(NC(=O)c3cc(NC(=O)C4C(c5cc(Cl)cc(Cl)c5)C4(Cl)Cl)ccc3Cl)ccc21 (centres unmarked) [c38] | A (50-100) | A (50-100) | A (80-100) | –
8 | O=C(Nc1cc2cc[nH]c2cn1)c1cc(NC(=O)C2C(c3cc(Cl)cc(Cl)c3)C2(Cl)Cl)ccc1Cl (centres unmarked) [c61] | A (50-100) | A (50-100) | A (80-100) | –
9 | O=C(Nc1ccc2[nH]c(C(F)(F)F)cc2c1)c1cc(NC(=O)C2C(c3cc(Cl)cc(Cl)c3)C2(Cl)Cl)ccc1Cl (centres unmarked) [c46] | A (50-100) | A (50-100) | D (No activity noticed in this bioassay) | –
10 | N#Cc1ccc(NC(=O)c2cc(NC(=O)C3C(c4cc(Cl)cc(Cl)c4)C3(Cl)Cl)ccc2Cl)c(C#N)c1 (centres unmarked) [c85] | A (50-100) | A (50-100) | A (80-100) | –
11 | CNc1ccc(NC(=O)c2cc(NC(=O)C3C(c4ccc(Br)c(Cl)c4)C3(Cl)Cl)ccc2Cl)c(C)c1 (centres unmarked) [c100] | A (50-100) | A (50-100) | A (80-100) | –
12 | CC(=O)Nc1ccc(NC(=O)c2cc(NC(=O)C3C(c4ccc(F)c(Cl)c4)C3(Cl)Cl)ccc2Cl)cc1 (centres unmarked) [c117] | – | – | – | Test A: percent mortality of Beet Armyworm (BAW) larvae, rating [2]: A (50-100); Test B: percent mortality of Cabbage Looper (CL) larvae, rating [3]: A (50-100); Test C: mortality of Yellow Fever Mosquito larvae, rating [4]: A (80-100)
13 | O=C(Nc1ncc(F)cc1F)c1cc(NC(=O)C2C(c3cc(F)c(F)c(F)c3)C2(Cl)Cl)ccc1Cl (centres unmarked) [Compound 478] | – | – | – | therapeutic efficacy against juvenile sea lice (% reduction vs control) [1]: 80%; therapeutic efficacy against (pre-)adult sea lice (% reduction vs control) [1]: 100%
14 | CNc1ccc(NC(=O)c2cc(NC(=O)C3C(c4cc(Cl)c(Cl)c(Cl)c4)C3(Cl)Cl)ccc2Cl)c(C)c1 (centres unmarked) [c47] | A (50-100) | A (50-100) | A (80-100) | –
15 | O=C(Nc1c[nH]c(=O)[nH]c1=O)c1cc(NC(=O)[C@H]2[C@H](c3cc(Cl)cc(Cl)c3)C2(Cl)Cl)ccc1Cl [c25] | A (50-100) | A (50-100) | B (More than 0 - Less than 80) | –
16 | CC(C)(C)OC(=O)Nc1cccc(NC(=O)c2cc(NC(=O)C3C(c4cc(Cl)cc(Cl)c4)C3(Cl)Cl)ccc2Cl)n1 (centres unmarked) [c97] | A (50-100) | A (50-100) | D (No activity noticed in this bioassay) | –
17 | CN1Cc2cc(NC(=O)c3cc(NC(=O)C4C(c5cc(Cl)cc(Cl)c5)C4(Cl)Cl)ccc3Cl)ccc2C1=O (centres unmarked) [c105] | A (50-100) | A (50-100) | A (80-100) | –
18 | O=C1Cc2cc(NC(=O)c3cc(NC(=O)C4C(c5cc(Cl)cc(Cl)c5)C4(Cl)Cl)ccc3Cl)ccc2N1 (centres unmarked) [c60] | A (50-100) | A (50-100) | A (80-100) | –
19 | CNc1cccc(NC(=O)c2cc(NC(=O)C3C(c4cc(Cl)cc(Cl)c4)C3(Cl)Cl)ccc2Cl)c1 (centres unmarked) [c30] | A (50-100) | A (50-100) | A (80-100) | –
20 | O=C(Nc1ccc2[nH]ccc2c1)c1cc(NC(=O)C2C(c3cc(Cl)cc(Cl)c3)C2(Cl)Cl)ccc1Cl (centres unmarked) [c12] | A (50-100) | A (50-100) | A (80-100) | –
21 | Cc1c(N)ccc(NC(=O)c2cc(NC(=O)C3C(c4ccc(F)c(C(F)(F)F)c4)C3(Cl)Cl)ccc2Cl)c1C (centres unmarked) [c123] | – | – | – | Test A: percent mortality of Beet Armyworm (BAW) larvae, rating [2]: A (50-100); Test B: percent mortality of Cabbage Looper (CL) larvae, rating [3]: A (50-100); Test C: mortality of Yellow Fever Mosquito larvae, rating [4]: A (80-100)
22 | Cc1cc(N)ccc1NC(=O)c1cccc(NC(=O)C2C(c3cc(Cl)c(Cl)c(Cl)c3)C2(Cl)Cl)c1 (centres unmarked) [c76] | A (50-100) | A (50-100) | A (80-100) | –
23 | CN1CCCc2cc(NC(=O)c3cc(NC(=O)C4C(c5cc(Cl)cc(Cl)c5)C4(Cl)Cl)ccc3Cl)ccc21 (centres unmarked) [c87] | A (50-100) | A (50-100) | A (80-100) | –
24 | O=C(Nc1ncc(F)cc1F)c1cc(NC(=O)C2C(c3cc(F)c(F)c(F)c3)C2(Cl)Cl)ccc1F (centres unmarked) [Compound 479] | – | – | – | therapeutic efficacy against juvenile sea lice (% reduction vs control) [1]: 80%; therapeutic efficacy against (pre-)adult sea lice (% reduction vs control) [1]: 100%
25 | CNc1ccc(NC(=O)c2cc(NC(=O)C3C(c4cc(Cl)c(OC)c(Cl)c4)C3(Cl)Cl)ccc2Cl)cc1 (centres unmarked) [c21] | A (50-100) | A (50-100) | D (No activity noticed in this bioassay) | –
26 | CC(=O)Nc1ccc(NC(=O)c2cc(NC(=O)[C@H]3[C@H](c4cc(Cl)cc(Cl)c4)C3(Cl)Cl)ccc2Cl)c(C)c1 [c10] | A (50-100) | A (50-100) | A (80-100) | –
27 | Nc1cccc(NC(=O)c2cc(NC(=O)C3C(c4cc(Cl)cc(Cl)c4)C3(Cl)Cl)ccc2Cl)c1 (centres unmarked) [c29] | A (50-100) | A (50-100) | A (80-100) | –
28 | Cc1cc(NC(=O)OC(C)(C)C)ccc1NC(=O)c1cccc(NC(=O)C2C(c3cc(Cl)cc(Cl)c3)C2(Cl)Cl)c1 (centres unmarked) [c75] | A (50-100) | A (50-100) | B (More than 0 - Less than 80) | –
